Among the data in patent US4663344A, “Anti-inflammatory and analgesic 3-hydroxybenzo[b]thiophene derivatives, compositions, and method of use therefor” (Merck & Co., Inc., priority 1985, dated 1987) are inhibition values, retold here.

This assay has as its target T1, RBL Cell 5-Lipoxygenase (Rattus norvegicus, UniProt P12527).
T1 construct: RBL Cell 5-Lipoxygenase; endogenous in cells; host or cells: RBL cells
T1 sequence (P12527 1-673): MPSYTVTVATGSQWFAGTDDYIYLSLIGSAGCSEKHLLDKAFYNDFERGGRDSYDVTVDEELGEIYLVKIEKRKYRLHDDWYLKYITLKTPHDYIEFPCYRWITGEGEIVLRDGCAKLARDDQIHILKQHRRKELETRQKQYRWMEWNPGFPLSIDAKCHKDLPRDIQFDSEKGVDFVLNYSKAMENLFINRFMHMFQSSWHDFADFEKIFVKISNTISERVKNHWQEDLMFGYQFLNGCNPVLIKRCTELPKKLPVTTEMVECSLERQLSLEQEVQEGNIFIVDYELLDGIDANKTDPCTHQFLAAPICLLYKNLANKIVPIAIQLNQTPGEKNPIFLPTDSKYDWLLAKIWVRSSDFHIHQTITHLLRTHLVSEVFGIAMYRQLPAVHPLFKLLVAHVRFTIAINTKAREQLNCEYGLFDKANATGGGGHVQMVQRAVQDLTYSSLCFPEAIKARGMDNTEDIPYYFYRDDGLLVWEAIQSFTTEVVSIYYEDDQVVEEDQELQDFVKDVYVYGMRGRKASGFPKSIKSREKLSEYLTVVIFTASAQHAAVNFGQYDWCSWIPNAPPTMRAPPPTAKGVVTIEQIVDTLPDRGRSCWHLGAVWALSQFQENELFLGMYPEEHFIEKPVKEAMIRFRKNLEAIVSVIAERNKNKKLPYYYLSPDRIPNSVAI
Put plainly: Inhibition of RBL Cell 5-Lipoxygenase. To be noted: read-out: Percent Inhibition (conc.). Format: biochemical. From the text:
Protocol published in R. W. Egan et al., "Advances in Prostaglandin, Thromboxane, and Leukotriene Research," Vol. 11 (edited by B. Samuelson et al., Raren Press, N.Y., 1983), p. 151.

What is called inhibition is the percentage by which the read-out fell short of the control. Consider `Oc1c(-c2ccccc2)sc2ccc(Cl)cc12` [Example 18, 5-Chloro-3-hydroxy-2-phenylbenzo[b]thiophene], for which the inhibition at 15 µM is more than 95%. As for `COC(=O)C=Cc1sc2ccccc2c1O` [Example 20, Methyl 3-(3-hydroxybenzo[b]thiophen-2-yl)acrylate], the inhibition at 3.6 µM (3.6 μM) came to 100%.

Take `Oc1c(-c2cccc(Cl)c2)sc2ccc(C(F)(F)F)cc12` [Example 12, 3-Hydroxy-2-(m-chlorophenyl)-5-trifluoromethyl-benzo[b]thiophene]: the inhibition at 15 µM is more than 95%.

As to `Oc1c(-c2ccccc2)sc2ccc(C(F)(F)F)cc12` [Example 4, 3-Hydroxy-2-phenyl-5-trifluoromethylbenzo[b]thiophene], the inhibition at 5 µM (5 μM) was more than 95%.

`CC(=O)Oc1c(CSc2nc(-c3ccccc3)c(-c3ccccc3)[nH]2)sc2ccccc12` [Example 25, 2-(3-acetoxybenzo[b]thien-2-ylmethyl)thio-4,5-diphenylimidazole]: the inhibition at 22 µM was 52%.

Take `CC(=O)Oc1c(Cc2ccccc2)sc2ccc(Cl)cc12` [Example 2, 3-Acetoxy-2-Benzyl-5-Chlorobenzo[b]thiophene]: the inhibition at 15 µM is more than 95%. Still for that read-out and setting: with `COc1cccc2sc(-c3ccccc3)c(O)c12` [Example 6, 3-Hydroxy-4-Methoxy-2-Phenylbenzo[b]thiophene] the figure was more than 95%.

On to `CC(=O)Oc1c(C=C(c2ccccc2)c2ccccc2)sc2ccc(C(F)(F)F)cc12` [Example 27, 2-(2,2-diphenylethenyl)-3-acetoxy-5-trifluoromethyl benzo[b]thiophene], for which the inhibition at 22 µM amounted to 95%.

Turning to `Cc1cccc(-c2sc3ccc(C(F)(F)F)cc3c2O)c1` [Example 16, 3-Hydroxy-2-(m-methylphenyl)-5-trifluoromethylbenzo[b]thiophene], the inhibition at 1 µM is more than 95%. For `CC(=O)Oc1cccc2sc(-c3ccccc3)c(OC(C)=O)c12` [Example 7, 3,4-Diacetoxy-2-Phenylbenzo[b]thiophene], the inhibition at 1 µM is more than 95%. In the case of `CC(=O)Oc1c(C)sc2ccc(C(F)(F)F)cc12` [Example 23, 2-Methyl-3-Acetoxy-5-trifluoromethylbenzo[b]thiophene], the inhibition at 0.4 µM (0.4 μM) is 100%. On to `Oc1c(-c2cccc(C(F)(F)F)c2)sc2ccc(C(F)(F)F)cc12` [Example 11, 3-Hydroxy-5-Trifluoromethyl-2-(m-trifluoromethylphenyl)-Benzo[b]thiophene], for which the inhibition at 15 µM is more than 95%. The same measure, in the same setting: in the case of `Oc1cccc2sc(-c3ccccc3)c(O)c12` [Example 8, 3,4-dihydroxy-2-phenylbenzo[b]thiophene] it was more than 95%; in that of `CCCCc1sc2ccc(Cl)cc2c1OC(C)=O` [Example 1, 3-Acetoxy-2-Butyl-5-Chlorobenzo[b]thiophene], more than 95%.

Consider `CC(=O)Oc1c(-c2ccccc2)sc2ccc(C(F)(F)F)cc12` [Example 5, 3-Acetoxy-2-Phenyl-5-Trifluoromethylbenzo[b]thiophene], for which the inhibition at 15 µM was more than 95%. As to `COC(=O)C=Cc1sc2ccccc2c1OC(C)=O` [Example 21, Methyl 3(3-acetoxybenzo[b]thiophen-2-yl)acrylate], the inhibition at 0.036 µM (0.036 μM) amounted to 71%. With `COC(=O)CCc1sc2ccc(C(F)(F)F)cc2c1OC(C)=O` [Example 22], the inhibition at 0.06 µM (0.06 μM) was more than 95%. Turning to `COc1ccc(-c2sc3ccc(C(F)(F)F)cc3c2O)cc1` [Example 15, 3-Hydroxy-2-(p-methoxyphenyl)-5-trifluoromethylbenzo[b]thiophene], the inhibition at 15 µM is more than 95%.
